In article PMC11876601 (Molecular Systems Biology, 2025) one finds Kd and EC50 data, which are given here for 3 compounds.

Molecules are shown by their SMILES.

In general, EC50 refers to the concentration needed to bring the measured effect to its halfway point.

The target of assay [1] is PIP4K2C ; Q8TBX8;Q8TBX8-2;Q8TBX8-3 (Homo sapiens, UniProt Q8TBX8). The assay is described as follows: biochemical. Set-up: species or system AsPC-1; Kinobeads competition pulldown in AsPC-1 lysate with LC-MS/MS label-free quantification; apparent Kd. Here is the method:
(§1) This was followed by incubation with Kinobeads ε (17.5 µl of settled beads) for 30 min at 4 °C to enrich kinases. […] Enriched proteins were reduced with 50 mM DTT in 8 M urea, 40 mM Tris-HCl, pH 7.4 for 30 min at room temperature, and alkylated with 55 mM chloroacetamide. After reducing the urea concentration to 1–2 M, proteins were digested with trypsin at 37 °C for 16 h. Subsequently, eluted peptides were desalted using SepPak tC18 µElution plates (Waters), freeze-dried by vacuum centrifugation, and stored at −20 °C. Proteins were filtered by potential contaminants, reversed hits and proteins identified only by site. Residual binding of proteins was calculated from LFQ intensities as the ratio between drug doses and vehicle. […] Only kinases quantified with at least 4 unique peptides in the vehicle experiment were considered. Potential targets were further curated through manual inspection of dose-dependent reduction in MS/MS and unique peptide counts.

In a further assay the target is GSK3B ; P49841-2;P49841 (Homo sapiens, UniProt P49841). The assay is described as follows: biochemical. Set-up: species or system AsPC-1; Kinobeads competition pulldown in AsPC-1 lysate with LC-MS/MS label-free quantification; apparent Kd. Here is the method:
as §1

In assay [2] the target is CIT ; O14578-4;O14578;O14578-2 (Homo sapiens, UniProt O14578). The assay is described as follows: biochemical. Set-up: species or system AsPC-1; Kinobeads competition pulldown in AsPC-1 lysate with LC-MS/MS label-free quantification; apparent Kd. How it is done: as §1
The target in another assay is FN3KRP ; Q9HA64 (Homo sapiens, UniProt Q9HA64). Kind of assay: biochemical. Set-up: species or system AsPC-1; Kinobeads competition pulldown in AsPC-1 lysate with LC-MS/MS label-free quantification; apparent Kd. Here is the method: as §1
For a further assay, the target named is CSNK2A2 ; P19784 (Homo sapiens, UniProt P19784). The assay is described as follows: biochemical. Set-up: species or system AsPC-1; Kinobeads competition pulldown in AsPC-1 lysate with LC-MS/MS label-free quantification; apparent Kd. Here is the method: as §1
For another assay, the target named is CDC42BPG ; Q6DT37 (Homo sapiens, UniProt Q6DT37). Kind of assay: biochemical. Set-up: species or system AsPC-1; Kinobeads competition pulldown in AsPC-1 lysate with LC-MS/MS label-free quantification; apparent Kd. Here is the method:
as §1

Another assay deals with TP53RK ; Q96S44 (Homo sapiens, UniProt Q96S44). The assay is described as follows: biochemical. Set-up: species or system AsPC-1; Kinobeads competition pulldown in AsPC-1 lysate with LC-MS/MS label-free quantification; apparent Kd. Here is the method:
as §1

Assay [3] deals with ADCK1 ; Q86TW2;Q86TW2-2;Q86TW2-3 (Homo sapiens, UniProt Q86TW2). The assay is described as follows: biochemical. Set-up: species or system AsPC-1; Kinobeads competition pulldown in AsPC-1 lysate with LC-MS/MS label-free quantification; apparent Kd. Here is the method: as §1
The target in the next assay is AXL ; P30530-2;P30530 (Homo sapiens, UniProt P30530). Kind of assay: biochemical. Set-up: species or system AsPC-1; Kinobeads competition pulldown in AsPC-1 lysate with LC-MS/MS label-free quantification; apparent Kd. Here is the method: as §1
The subject of assay [4] is nine PDAC patient-derived organoids (PDOs). Kind of assay: PDO viability assay (CellTiter-Glo, 72 h), panel. The format is cell-based. Particulars: Homo sapiens; range among the nine PDOs; read-out: EC50 (monotherapy). How it is done: Primary patient-derived PDAC organoid (PDO) experiments were performed in the laboratories of Prof. Maximilian Reichert (University Hospital of the TU Munich, Germany, PDO set 1: B250, B535, B678) and Prof. Jens T. Siveke (University Hospital Essen, Germany; PDO set 2: UME008, UME012, UME051, UME053, UME060, UME061). PDOs were generated from surgical resection, EUS-guided fine needle biopsy (EUS-FNB), or ascites (Appendix Table S2). Surgical specimens were first minced with a sterile scalpel and subsequently washed with Anti-Anti solution and washing medium (PDO set 1), or vice versa (PDO set 2; Appendix Table S3). Biopsy samples were directly washed with an Anti-Anti solution and washing medium. Samples were digested using 1 ml of digestion medium at 37 °C while shaking, and the enzymatic reaction was stopped by adding 15 ml of washing medium (Appendix Table S3). […]
For viability assays in PDOs, confluent organoids were removed from medium, and Matrigel was dissolved by adding 200 μl (PDO set 1) or 2 ml (PDO set 2) of Cell Recovery Solution (Corning), and additionally 500 μl of DPBS (PDO set 1 only). […] After 72 h, cell viability was measured using the CellTiter-Glo Luminescent Cell Viability Assay (Promega) diluted 1:5 in the final volume of the well. […]
(In ATP-based viability assays light output follows the ATP content of the culture.)

Chain of AXL ; P30530-2;P30530 (P30530 whole entry): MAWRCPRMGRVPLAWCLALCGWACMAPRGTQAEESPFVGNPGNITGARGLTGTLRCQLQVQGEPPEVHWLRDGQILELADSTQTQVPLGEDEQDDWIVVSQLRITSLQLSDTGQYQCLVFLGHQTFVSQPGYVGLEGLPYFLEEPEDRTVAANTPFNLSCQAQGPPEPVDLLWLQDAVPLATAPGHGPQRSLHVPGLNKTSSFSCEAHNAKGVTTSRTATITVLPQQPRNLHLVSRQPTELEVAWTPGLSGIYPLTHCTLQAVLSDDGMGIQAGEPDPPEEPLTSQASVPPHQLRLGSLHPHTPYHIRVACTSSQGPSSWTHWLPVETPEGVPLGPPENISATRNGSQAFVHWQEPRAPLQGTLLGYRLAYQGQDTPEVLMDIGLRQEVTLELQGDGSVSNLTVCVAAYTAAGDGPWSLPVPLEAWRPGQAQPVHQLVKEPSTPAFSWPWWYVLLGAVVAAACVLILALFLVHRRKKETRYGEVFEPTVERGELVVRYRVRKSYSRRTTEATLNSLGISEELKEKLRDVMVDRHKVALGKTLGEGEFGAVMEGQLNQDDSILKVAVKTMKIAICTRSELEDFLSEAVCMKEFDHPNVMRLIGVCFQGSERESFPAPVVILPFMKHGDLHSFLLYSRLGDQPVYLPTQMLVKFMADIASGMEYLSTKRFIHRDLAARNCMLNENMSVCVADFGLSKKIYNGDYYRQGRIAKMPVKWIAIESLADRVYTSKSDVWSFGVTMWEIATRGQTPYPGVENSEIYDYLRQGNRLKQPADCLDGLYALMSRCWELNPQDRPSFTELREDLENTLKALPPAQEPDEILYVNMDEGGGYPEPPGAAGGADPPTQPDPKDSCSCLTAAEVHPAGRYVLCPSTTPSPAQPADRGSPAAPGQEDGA
Chain of CSNK2A2 ; P19784 (P19784 whole entry): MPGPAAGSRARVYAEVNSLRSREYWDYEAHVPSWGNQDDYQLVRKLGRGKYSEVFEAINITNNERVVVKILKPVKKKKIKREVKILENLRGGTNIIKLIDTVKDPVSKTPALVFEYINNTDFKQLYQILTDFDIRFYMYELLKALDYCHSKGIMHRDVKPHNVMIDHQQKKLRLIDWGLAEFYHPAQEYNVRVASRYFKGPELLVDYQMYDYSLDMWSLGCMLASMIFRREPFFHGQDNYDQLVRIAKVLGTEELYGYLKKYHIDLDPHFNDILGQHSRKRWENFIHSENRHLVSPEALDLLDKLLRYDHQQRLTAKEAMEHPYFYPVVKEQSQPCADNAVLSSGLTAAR
Chain of ADCK1 ; Q86TW2;Q86TW2-2;Q86TW2-3 (Q86TW2 whole entry): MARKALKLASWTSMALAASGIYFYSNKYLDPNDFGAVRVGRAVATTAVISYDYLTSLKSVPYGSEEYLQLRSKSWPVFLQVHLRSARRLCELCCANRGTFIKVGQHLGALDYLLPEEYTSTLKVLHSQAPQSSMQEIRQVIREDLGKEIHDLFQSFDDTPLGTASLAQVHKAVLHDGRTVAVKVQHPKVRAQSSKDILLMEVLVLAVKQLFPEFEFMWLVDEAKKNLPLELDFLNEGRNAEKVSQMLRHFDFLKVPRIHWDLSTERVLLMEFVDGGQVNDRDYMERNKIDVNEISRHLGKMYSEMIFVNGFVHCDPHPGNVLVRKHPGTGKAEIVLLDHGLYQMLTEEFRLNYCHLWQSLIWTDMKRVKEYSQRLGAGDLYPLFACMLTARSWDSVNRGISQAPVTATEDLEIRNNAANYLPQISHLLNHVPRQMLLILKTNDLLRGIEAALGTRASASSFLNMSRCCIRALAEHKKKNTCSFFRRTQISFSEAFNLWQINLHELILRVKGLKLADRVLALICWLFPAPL
Chain of GSK3B ; P49841-2;P49841 (P49841 whole entry): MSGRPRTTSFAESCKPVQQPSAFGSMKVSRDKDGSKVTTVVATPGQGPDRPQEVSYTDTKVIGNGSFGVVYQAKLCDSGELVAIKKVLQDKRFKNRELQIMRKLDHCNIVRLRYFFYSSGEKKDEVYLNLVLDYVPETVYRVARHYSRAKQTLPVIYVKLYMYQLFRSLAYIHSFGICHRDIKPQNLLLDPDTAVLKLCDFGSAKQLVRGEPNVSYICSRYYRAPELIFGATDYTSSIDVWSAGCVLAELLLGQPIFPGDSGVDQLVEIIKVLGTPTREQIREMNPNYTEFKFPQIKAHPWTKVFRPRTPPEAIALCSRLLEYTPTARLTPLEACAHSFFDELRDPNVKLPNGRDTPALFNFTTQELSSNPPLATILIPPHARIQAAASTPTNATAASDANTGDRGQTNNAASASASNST
Chain of CIT ; O14578-4;O14578;O14578-2 (O14578 whole entry): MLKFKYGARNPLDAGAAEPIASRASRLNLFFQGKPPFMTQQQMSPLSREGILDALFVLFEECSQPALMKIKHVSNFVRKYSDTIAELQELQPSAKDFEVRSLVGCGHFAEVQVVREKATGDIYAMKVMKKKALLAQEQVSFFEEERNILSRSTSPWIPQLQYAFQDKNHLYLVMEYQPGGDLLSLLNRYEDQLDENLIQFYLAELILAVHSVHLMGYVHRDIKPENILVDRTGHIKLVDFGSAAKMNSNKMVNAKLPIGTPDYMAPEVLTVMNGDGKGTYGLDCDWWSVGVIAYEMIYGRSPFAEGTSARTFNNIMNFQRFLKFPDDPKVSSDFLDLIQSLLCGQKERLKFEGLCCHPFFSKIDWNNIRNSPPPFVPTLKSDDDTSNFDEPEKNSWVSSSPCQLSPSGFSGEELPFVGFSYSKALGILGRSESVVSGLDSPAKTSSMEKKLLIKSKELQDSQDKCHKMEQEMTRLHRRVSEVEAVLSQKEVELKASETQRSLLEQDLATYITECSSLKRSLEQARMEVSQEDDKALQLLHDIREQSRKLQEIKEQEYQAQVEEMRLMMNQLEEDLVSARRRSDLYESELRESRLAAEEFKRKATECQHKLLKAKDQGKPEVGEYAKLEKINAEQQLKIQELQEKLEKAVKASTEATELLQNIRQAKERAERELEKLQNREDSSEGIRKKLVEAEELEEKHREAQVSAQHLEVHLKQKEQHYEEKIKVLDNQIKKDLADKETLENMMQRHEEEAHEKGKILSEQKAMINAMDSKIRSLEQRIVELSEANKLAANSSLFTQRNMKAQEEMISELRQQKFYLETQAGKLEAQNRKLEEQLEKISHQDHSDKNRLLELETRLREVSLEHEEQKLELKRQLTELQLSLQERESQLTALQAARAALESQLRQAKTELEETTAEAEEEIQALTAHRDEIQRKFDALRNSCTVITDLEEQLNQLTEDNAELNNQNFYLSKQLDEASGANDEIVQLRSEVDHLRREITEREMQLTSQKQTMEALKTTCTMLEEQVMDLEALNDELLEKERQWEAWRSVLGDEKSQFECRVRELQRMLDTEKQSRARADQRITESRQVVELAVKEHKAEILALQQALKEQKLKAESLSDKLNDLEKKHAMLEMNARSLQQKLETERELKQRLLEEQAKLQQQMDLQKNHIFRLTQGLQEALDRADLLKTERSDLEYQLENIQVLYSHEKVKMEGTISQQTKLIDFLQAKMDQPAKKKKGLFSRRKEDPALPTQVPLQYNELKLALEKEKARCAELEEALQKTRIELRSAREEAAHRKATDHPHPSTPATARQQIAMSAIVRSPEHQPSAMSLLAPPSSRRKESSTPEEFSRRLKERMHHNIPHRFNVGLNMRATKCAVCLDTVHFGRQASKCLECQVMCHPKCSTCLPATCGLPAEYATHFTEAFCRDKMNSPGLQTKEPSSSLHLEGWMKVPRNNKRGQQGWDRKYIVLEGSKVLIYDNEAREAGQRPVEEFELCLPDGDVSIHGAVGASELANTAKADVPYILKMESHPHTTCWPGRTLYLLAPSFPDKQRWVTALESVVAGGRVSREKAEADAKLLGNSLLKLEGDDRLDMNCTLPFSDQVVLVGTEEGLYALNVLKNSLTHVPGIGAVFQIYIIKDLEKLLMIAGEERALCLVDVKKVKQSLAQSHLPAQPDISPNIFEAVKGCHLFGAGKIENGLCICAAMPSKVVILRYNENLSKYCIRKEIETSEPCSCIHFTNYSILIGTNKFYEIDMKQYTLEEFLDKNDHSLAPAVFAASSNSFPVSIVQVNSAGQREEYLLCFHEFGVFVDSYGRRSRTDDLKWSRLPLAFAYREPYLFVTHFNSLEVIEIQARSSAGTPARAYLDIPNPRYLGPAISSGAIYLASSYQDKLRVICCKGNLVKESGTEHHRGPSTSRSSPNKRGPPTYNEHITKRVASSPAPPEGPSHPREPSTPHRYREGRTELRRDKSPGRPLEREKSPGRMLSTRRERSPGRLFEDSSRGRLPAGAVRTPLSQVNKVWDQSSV
Chain of TP53RK ; Q96S44 (Q96S44 whole entry): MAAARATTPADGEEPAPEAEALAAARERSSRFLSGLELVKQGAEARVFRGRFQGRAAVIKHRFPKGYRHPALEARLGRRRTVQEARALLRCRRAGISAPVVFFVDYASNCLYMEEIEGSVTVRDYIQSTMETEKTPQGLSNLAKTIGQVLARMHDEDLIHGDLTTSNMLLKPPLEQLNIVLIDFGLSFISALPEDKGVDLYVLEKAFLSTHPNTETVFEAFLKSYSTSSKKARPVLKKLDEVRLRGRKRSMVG
Chain of FN3KRP ; Q9HA64 (Q9HA64 whole entry): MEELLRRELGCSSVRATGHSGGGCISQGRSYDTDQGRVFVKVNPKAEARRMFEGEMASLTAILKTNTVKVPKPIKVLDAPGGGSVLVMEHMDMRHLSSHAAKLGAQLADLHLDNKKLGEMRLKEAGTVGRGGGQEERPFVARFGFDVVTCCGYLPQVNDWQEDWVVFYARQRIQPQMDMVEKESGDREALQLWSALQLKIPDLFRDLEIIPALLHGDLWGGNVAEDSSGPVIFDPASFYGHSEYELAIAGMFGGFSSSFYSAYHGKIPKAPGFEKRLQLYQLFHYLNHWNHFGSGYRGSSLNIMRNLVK

For the compound `CNCc1ccc(-c2cc(-c3nc(-c4ccc(S(=O)(=O)C(C)C)cc4)cnc3N)on2)cc1` [Berzosertib], the figures for the Kd (in assay [1]; at GSK3B ; P49841-2;P49841) were 21.4 nM and 33.2 nM, respectively.
`Nc1nn2cc(F)cnc2c1C(=O)Nc1cncc(F)c1N1CCC(C(=O)N2CCN(C3COC3)CC2)CC1` [Gartisertib]: the Kd in assay [2] worked out at 40 nM; at FN3KRP ; Q9HA64, 358 nM; at CSNK2A2 ; P19784 it was 15.1 nM; at CDC42BPG ; Q6DT37 it was 16.9 nM; on TP53RK ; Q96S44 it was 113 nM; in [3], 23.2 nM. The Kd on AXL ; P30530-2;P30530 was found to be 473 nM.
As to `Nc1ccn([C@@H]2O[C@H](CO)[C@@H](O)C2(F)F)c(=O)n1` [GEM, Gemcitabine], the 50% effective concentration (EC50) in assay [4] fell in the range of 3 to 285 nM.
